Like-named read-outs stand apart in the source and are kept apart here.
Legend:
Assay type in all cases: cell-based
[1] = test system: MCF-7 cells; assay: Breast cancer cell viability assay (CellTiter-Glo, 5 days); details: 5 days' compound exposure; for IC50: Homo sapiens, MCF7, 120 h
Procedure, shortened: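 Eleven-point semilog compound series, final 0.3-0.000003 μM, added to overnight-adhered MCF-7 cells (320/well; RPMI, 10% FBS, 20 mM HEPES) for 5 days. Viability read by CellTiter-Glo luminescence, background from medium without cells subtracted, expressed relative to untreated cells.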

[2] = biological target: T1, ER-α in MCF-7 cells (Homo sapiens, UniProt P03372); assay: Breast cancer cell ER-α in cell western assay (SP1); set-up: MCF-7 cells were adjusted to a concentration of 200,000 cells per mL; endogenous in cells; host or cells: MCF-7; details: 4 or 24 hr post compound addition; for Emax: MCF7, SP1 antibody, read-out: ER-α In Cell Western Assay (SP1) Max Response; for DC50: SP1 antibody, read-out: ER-α In Cell Western Assay (SP1) IC50
T1 sequence (P03372 1-595): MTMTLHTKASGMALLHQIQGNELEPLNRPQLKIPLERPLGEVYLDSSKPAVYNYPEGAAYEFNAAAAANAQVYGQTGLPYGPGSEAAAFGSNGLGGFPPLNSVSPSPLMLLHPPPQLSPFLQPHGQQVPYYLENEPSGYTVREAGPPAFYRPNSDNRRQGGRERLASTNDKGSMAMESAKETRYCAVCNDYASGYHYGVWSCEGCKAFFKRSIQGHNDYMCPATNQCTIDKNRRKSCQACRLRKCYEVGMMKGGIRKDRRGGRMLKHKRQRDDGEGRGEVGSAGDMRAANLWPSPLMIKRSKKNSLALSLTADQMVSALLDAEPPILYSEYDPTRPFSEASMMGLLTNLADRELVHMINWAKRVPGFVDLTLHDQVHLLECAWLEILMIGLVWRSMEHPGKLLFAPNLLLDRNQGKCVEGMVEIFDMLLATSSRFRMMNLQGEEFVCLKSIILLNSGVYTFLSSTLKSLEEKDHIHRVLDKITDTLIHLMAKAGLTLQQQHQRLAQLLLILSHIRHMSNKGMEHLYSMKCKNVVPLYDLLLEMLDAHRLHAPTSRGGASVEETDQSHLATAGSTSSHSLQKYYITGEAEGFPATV
Description: MCF-7 cells were adjusted to a concentration of 200,000 cells per mL in RPMI containing 10% charcoal-stripped FBS and 20 mM HEPES. 16 microliters of the cell suspension (3200 cells) was added to each well of a poly-D-lysine 384 well plate, and the cells were incubated overnight to allow the cells to adhere. The following day an eleven point, serial semilog dilution of each compound was added to the cells in 16 μL at a final concentration ranging from 0.3-0.000003 μM. At 4 or 24 hr post compound addition, the cells were fixed (10% formalin in PBS) for 20 minutes. Cells were permeablized in PBS 0.1% Triton and blocked with LICOR blocking buffer (50 μl/well, 90°). The wells were then incubated overnight at 4° C. with SP1 rabbit monoclonal Ab (Thermo Scientific) diluted 1:1000 in LICOR blocking buffer/0.1% Tween-20. Wells which were treated with blocking buffer with Tween but no antibody were used as a background control. Wells were washed with 0.1% Tween-20/PBS and then incubated in goat anti-rabbit IRDye™ 800CW (LICOR Inc.; 1:1000) and DRAQ5 DNA dye (1:2000 for 2 mM stock) diluted in LICOR blocking buffer containing 0.1% Tween-20 and 0.01% SDS for 60 minutes. Cells were washed (50 μl/well, 5′ each) in 0.1% Tween-20/PBS. Plates were scanned on a LICOR Odyssey infrared imaging system. Integrated intensities in the 800 nm channel and 700 nm channel were measured to determine levels of ER and DNA respectively. Percent ER levels were determined as follows: (Integrated intensity 800 nm sample/integrated intensity 700 nm sample)/(Integrated intensity 800 nm untreated cells/integrated intensity 700 nm untreated cells)×100=% ER levels.

[3] = biological target: T1, ER-α in MCF-7 cells; assay: as above; set-up: endogenous in cells; host or cells: MCF-7; details: 4 or 24 hr post compound addition; for Emax: MCF7, SP1 antibody, read-out: ER-α In Cell Western Assay (SP1) Max Response; for DC50: SP1 antibody, read-out: ER-α In Cell Western Assay (SP1) IC50
Procedure, shortened: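 MCF-7, charcoal-stripped FBS/RPMI, 3200 cells/well, adhered overnight. Formalin fix, SP1 Ab o/n 4 °C, IRDye 800CW + DRAQ5; % ER = 800/700 ratio vs untreated.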

CC/C(=C(/c1ccc(/C=C/C(=O)O)cc1)c1cn[nH]c1)c1ccccc1 [Compound 150]
MCF7 Viability Assay Max Response [1]: + (+ = a single % value < 40%) | IC50 [1]: > 100 nM | Emax [2]: ≥ 40% | DC50 [2]: > 100 nM

O=C(O)/C=C/c1ccc(/C(=C(\c2ccncc2Cl)C2CCC2)c2ccc3scnc3c2)cc1 [Compound 285]
MCF7 Viability Assay Max Response [1]: ++ (++ = a single % value ≧ 40%) | IC50 [1]: ≤ 100 nM | Emax [2]: ≥ 40% | DC50 [2]: ≤ 100 nM

CC/C(=C(/c1ccc(/C=C/C(=O)O)cc1)c1coc2c(O)cccc12)c1ccc(F)cc1Cl [Compound 450, (E)-3-(4-((E)-2-(2-Chloro-4-fluorophenyl)-1-(7-hydroxybenzofuran-3-yl)but-1-en-1-yl)phenyl)acrylic acid]
MCF7 Viability Assay Max Response [1]: ++ (++ = a single % value ≧ 40%) | IC50 [1]: ≤ 100 nM | Emax [3]: ≥ 40% | DC50 [3]: ≤ 100 nM

CC/C(=C(/c1ccc(/C=C/C(=O)O)cc1)c1coc2c(O)cccc12)c1ccccc1 [Compound 451, (E)-3-(4-((E)-1-(7-Hydroxybenzofuran-3-yl)-2-phenylbut-1-en-1-yl)phenyl)acrylic acid]
MCF7 Viability Assay Max Response [1]: ++ (++ = a single % value ≧ 40%) | IC50 [1]: ≤ 100 nM | Emax [3]: ≥ 40% | DC50 [3]: ≤ 100 nM

CC/C(=C(/c1ccc(/C=C/S(N)(=O)=O)cc1)c1ccc2[nH]ncc2c1)c1ccccc1 [Compound 452, (E)-2-(4-((E)-1-(1H-Indazol-5-yl)-2-phenylbut-1-en-1-yl)phenyl)ethenesulfonamide]
MCF7 Viability Assay Max Response [1]: ++ (++ = a single % value ≧ 40%) | IC50 [1]: ≤ 100 nM | Emax [3]: ≥ 40% | DC50 [3]: ≤ 100 nM

CC/C(=C(/c1ccc(/C=C/C(=O)O)cc1)c1cc(F)c2[nH]ncc2c1)c1cc[n+]([O-])cc1Cl [Compound 453, 4-((E)-1-(4-((E)-2-Carboxyvinyl)phenyl)-1-(7-fluoro-1H-indazol-5-yl)but-1-en-2-yl)-3-chloropyridine-1-oxide]
MCF7 Viability Assay Max Response [1]: ++ (++ = a single % value ≧ 40%) | IC50 [1]: > 100 nM | Emax [3]: ≥ 40% | DC50 [3]: > 100 nM

Source: patent US9399646B2 (Genentech, Inc., priority 2010, dated 2016)
